Reference: patent US8835644B2, “Broad spectrum benzothiophene-nitrothiazolide and other antimicrobials” (University of Virginia Patent Foundation, priority 2009, dated 2014)
Converted amounts (≈) assume the structure as drawn. Read-outs that look alike come from different tables or passages of the source.

Key:
[1] = system: EAEC JM221 (AAF/I fimbriae); assay: Hemagglutination of sheep erythrocytes, EAEC JM221; type: cell-based, Escherichia coli; conditions: EAEC JM221 grown in MinA-G with 20 μg/ml NTZ; also: key: +++ = strong hemagglutination reaction; + weak; − no hemagglutination
Experimental: HA assays were performed in 96-well microplates as described in (1). Bacteria grown over night without shaking ([…]) were suspended in PBS and diluted to OD660 of […] was mixed with an equal volume of 3% (vol/vol) sheep erythrocyte suspension containing 1% mannose, except when type I fimbriae producing strains were assayed. In the latter, bacteria were grown statically in LB medium (with and without NTZ) for 48 h and HA was determined with guinea pig erythrocytes. HA reactions were incubated at 4° C. for […] HA was determined visually against controls receiving no NTZ. All assays were prepared in triplicate and repeated twice.

[2] = system: aggR and aafA transcripts of EAEC 042; assay: qRT-PCR of aggR, aafA and rpoS; type: cell-based, Escherichia coli; conditions: EAEC 042, MinA-G
Experimental: EAEC 042 was grown overnight in MinA-G medium and then diluted to a starting OD600 of 0.05 in three 50 ml MinA-G cultures with 0, 10, and 25 μg/ml NTZ. Bacterial cells were grown with shaking until the cultures reached an OD600 of ˜0.4 and were harvested by centrifugation at 4° C. The pellets were resuspended in 200 μl TE buffer, transferred to polystyrene round bottom 14 ml tubes, and total RNA was extracted by the TES-hot phenol method as previously described (15). The RNA was re-precipitated and washed two times with 500 μl 70% DEPC ethanol to remove any remaining salts. The pellets were dried at 37° C. and suspended in 100 μl DEPC water. RNA concentration was determined with a Nanoprop ND-1000 UV-Vis Spectrophotometer. RNA yields were typically in the 1.6-3.2 μg/μl range. Residual DNA was removed by treatment with TURBO DNase and stored at −80° C. (15).
Primers for real-time qRT-PCR were designed to yield approximately 150 base pair amplicons for the virulence genes aggR and aafA and for the stringent response gene rpoS, which served as an internal control. SuperScript™ II Reverse Transcriptase (Invitrogen) was used to synthesize first-strand cDNA from 1 μg purified RNA with 100 ng random primers (Invitrogen). RNA, random primers, and dNTPs (0.5 mM final concentration) were mixed, heated for 65° C. for 5 min, centrifuged briefly, and quick chilled on ice. […]

[3] = reference (9); cited from earlier work
C. jejuni = assay: MIC testing by broth dilution, C. jejuni; type: cell-based, Campylobacter jejuni
Method in brief: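 Media: LB (E. coli), Trypticase Soy (S. epidermidis), BHI (C. jejuni); plank cells. C. difficile on Wilkins Chalgrin agar, anaerobic Kirby-Bauer disks, zone vs NTZ zone ratio.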

E. coli 042 aggR-lacZ = assay: Reporter gene fusions aggR-lacZ, aafA-phoA; type: cell-based, Escherichia coli; conditions: β-galactosidase, static growth, 12 μg/ml NTZ
Experimental: Reporter gene fusions were provided by James Nataro (University of Maryland) and included E. coli 042 aggR-lacZ and E. coli 042 aafA-phoA (3.4.14 and 2.94) (3) and an undefined promoterless lacZ control strain of E. coli 042. Strains were grown without shaking in MinA-G medium supplemented with 0, 12 or 25 μg/ml of NTZ for 16 h at 37° C. β-Galactosidase activity was determined spectrophotometrically and reported in Miller units (24). Alkaline phosphatase activity was also determined spectrophotometrically using p-nitrophenol as previously described (23). All assays were performed in triplicate in three independent experiments and the mean and standard deviation are reported.

**Q.** What does the source list for `CC(=O)Oc1ccccc1C(=O)Nc1ncc([N+](=O)[O-])s1` [Nitazoxanide, 2-(acetyloxy)-N-(5-nitro-2-thiazolyl)benzamide, reference compound]?
**A.** HA (sheep erythrocytes), bacterial OD660 0.5 [1]: −; HA (sheep erythrocytes), bacterial OD660 1.0 [1]: −; Increase in aggR transcript levels over untreated controls [2]: ~10 fold; aafA expression [2]: unaffected; pKa [3]: 6.2; MIC (C. jejuni; 2-amino-3,5-dinitrothiophene analogues table, read-out: MIC C. jejuni): 39.1 µM (≈ 12 µg/mL); MIC (C. jejuni; Campylobacter jejuni, Furan analogues table, read-out: MIC C. jejuni): 39.1 µM (≈ 12 µg/mL); MIC (C. jejuni; Campylobacter jejuni, broth dilution, Brain Heart Infusion, 24 h, read-out: MIC (μM) C. jejuni): 39.1 µM (≈ 12 µg/mL); MIC (C. jejuni; Thiophene analogues table, read-out: MIC C. jejuni): 39.1 µM (≈ 12 µg/mL); Increase in aggR:lacZ expression over untreated controls (E. coli 042 aggR-lacZ): ~2.5 fold
